Experimental data taken from patent US20220185818A1, “PYRROLOHETEROCYCLIC DERIVATIVE, PREPARATION METHOD THEREFOR, AND APPLICATION THEREOF IN MEDICINE” (Jiangsu Hengrui Medicine Co., Ltd., priority 2019, published 2022).

Legend:
Colo205 cells = test: In vitro proliferation inhibition test on Colo205 tumor cells (CellTiter-Glo); assay type: cell-based; details: Homo sapiens, COLO 205, 72 h; 3 days of culture, CTG; read-out: IC50 value of the inhibition on in vitro Colo205 tumor cell proliferation
Experimental: The purpose of this experiment is to test the inhibitory activity of the compounds on the proliferation of Colo205 cells (CCL-222, ATCC) in vitro. The cells were treated in vitro with different concentrations of the compounds. After 3 days of culture, the cell proliferation was tested with CTG (CellTiter-Glo® Luminescent Cell Viability Assay, Promega, Catalog No. G7573) reagent, and the in vitro activity of the compounds was evaluated according to the IC50 value.
In the following, taking the in vitro proliferation inhibition test method of Colo205 cells as an example, the method in the present disclosure for testing the in vitro proliferation inhibitory activity of the compounds of the present disclosure is described. This method is also applicable to, but not limited to, the in vitro proliferation inhibitory activity test on other tumor cells.
Colo205 cells were digested, centrifuged and then resuspended. The single cell suspension was mixed well, and the density of viable cells was adjusted to 5.0×10^4 cells/ml with cell culture medium (RPMI1640+2% FBS), and 95 μl/well was added to a 96-well cell culture plate. Only 100 μl medium was added to the peripheral wells of the 96-well plate. The culture plate was incubated in an incubator for 24 hours (37° C., 5% CO2).
The compound was dissolved in DMSO and prepared into a stock solution with an initial concentration of 20 mM. The initial concentration of the small molecule compound was 2 mM, and then 4-fold diluted into 9 points, and the 10th point is DMSO. Another 96-well plate was taken and 90 μl of cell culture medium (RPMI1640+2% FBS) was added to each well, then 10 μl of different concentrations of the test sample was added to each well. The mixture was mixed well, and then 5 μL of different concentrations of the test sample was added to the cell culture plate with duplicate well for each sample. The culture plate was incubated in an incubator for 3 days (37° C., 5% CO2). The 96-well cell culture plate was taken out, 50 μL CTG solution was added to each well, and the plate was incubated for 10 minutes at room temperature. In a microplate reader (BMG labtech, PHERAstar FS), chemiluminescence was measured with the microplate reader.
(§1) Microsoft Excel, Graphpad Prism 5 was used to process and analyze the data.

ERK2 = target: T1, ERK2 (Homo sapiens, UniProt P28482); test: ERK2 enzyme activity test (ADP-Glo Kinase Assay); assay type: biochemical; details: read-out: IC50 value of the inhibition on ERK2 enzyme activity
T1 construct: purchased R&D 1879-KS-010
T1 sequence (P28482 2-360 limits assumed): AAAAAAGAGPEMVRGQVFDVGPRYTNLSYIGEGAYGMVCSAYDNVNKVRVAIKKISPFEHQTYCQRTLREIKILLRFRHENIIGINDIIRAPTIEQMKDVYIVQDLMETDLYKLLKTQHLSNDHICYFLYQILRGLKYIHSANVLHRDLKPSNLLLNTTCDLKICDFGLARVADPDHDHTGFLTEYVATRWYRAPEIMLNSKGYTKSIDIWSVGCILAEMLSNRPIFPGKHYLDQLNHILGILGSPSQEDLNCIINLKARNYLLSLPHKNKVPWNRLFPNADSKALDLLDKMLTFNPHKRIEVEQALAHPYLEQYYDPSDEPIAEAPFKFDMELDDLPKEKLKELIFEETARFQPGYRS
Experimental: (§2) The purpose of this experiment is to detect the inhibitory ability of the compounds on the ERK2 enzyme activity, and evaluate the in vitro activity of the compounds based on the IC50. The ADP-Glo™ Kinase Assay Kit is used in this experiment. Under the action of the enzyme, the substrate is phosphorylated and ADP is produced at the same time. The ADP-Glo reagent is added to remove the unreacted ATP in the reaction system, and the ADP produced by the reaction is detected by the kinase detection reagent. In the presence of the compound, the inhibition rate of the compound is calculated by measuring the signal value.
(§3) ATP was diluted to 500 μM with the buffer. The compound was dissolved in DMSO to prepare a stock solution with an initial concentration of 20 mM, and then Bravo (SGC120TH34702, Agilent Technologies) was used to dilute the stock solution to desired concentrations. Finally, a 3 μL of a mixed solution of enzyme and substrate, and 1 μL of different concentrations of the compound (the initial concentration is 50 μM, 4-fold dilution) were added to each well of the 384-well plate, and the plate was incubated at 30° C. for 10 minutes, and finally 1 μL of 500 μM ATP solution was added to each well, and the plate was incubated at 30° C. for 2 hours. Then 5 μL of ADP-Glo was added, and the plate was incubated at 30° C. for 40 minutes. Then 10 μL of kinase detection buffer was added, and the plate was incubated at 30° C. for 40 minutes. The 384-well plate was taken out and placed in a microplate reader (BMG labtech, PHERAstar FS), and the chemiluminescence was measured by the microplate reader.
as §1

ERK1 = target: T2, ERK1 (Homo sapiens, UniProt P27361); test: ERK1 enzyme activity test (ADP-Glo Kinase Assay); assay type: biochemical; details: read-out: IC50 value of the inhibition on ERK1 enzyme activity
T2 construct: purchased R&D 1879-KS-010
T2 sequence (P27361 whole entry): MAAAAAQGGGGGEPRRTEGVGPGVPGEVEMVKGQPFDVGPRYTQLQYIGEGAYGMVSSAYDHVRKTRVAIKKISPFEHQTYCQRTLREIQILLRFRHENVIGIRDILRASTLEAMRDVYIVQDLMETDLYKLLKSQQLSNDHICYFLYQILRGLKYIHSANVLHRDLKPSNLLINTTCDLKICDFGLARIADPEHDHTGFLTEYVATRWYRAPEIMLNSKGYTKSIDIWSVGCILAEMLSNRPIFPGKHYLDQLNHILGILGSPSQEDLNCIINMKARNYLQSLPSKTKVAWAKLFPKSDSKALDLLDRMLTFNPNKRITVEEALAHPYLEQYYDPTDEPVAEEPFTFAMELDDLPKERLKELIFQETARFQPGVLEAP
Experimental: as §2, with “the ERK1” for “the ERK2”, “detected with” for “detected by”
as §3, with “diluted to 300 μM with” for “diluted to 500 μM with”, “Finally, a […] of” for “Finally, a 3 μL of”, “and 1 μL, of different” for “and 1 μL of different”, “μL of 300 μM ATP” for “μL of 500 μM ATP”, “μL of Kinase detection buffer” for “μL of kinase detection buffer”
as §1

[1] = Pharmacokinetics assay in mice; assay type: in vivo; details: female, mouse, po, C57 mice, intragastrical administration, 2 mg/kg, plasma; for Vd/F: read-out: Apparent distribution volume Vz/F; for AUC: read-out: Area under curve AUC; for CL/F: read-out: Clearance CLz/F; for half-life: read-out: Half-life T1/2 (converted); for Cmax: read-out: Plasma concentration Cmax; for MRT: read-out: Residence time MRT
Experimental: Mice were used as test animals. […] The pharmacokinetic behavior of the compounds of the present disclosure was studied in mice, and the pharmacokinetic characteristics were evaluated.
2.2 Test Animals Thirty-six C57 mice (female, equally divided into 4 groups) were purchased from Shanghai Jiesijie Laboratory Animal Co., LTD.
A certain amount of the test compound was weighed and dissolved by the addition of 5% of DMSO and 5% of tween 80. Then 90% of normal saline were added to prepare a 0.1 mg/mL colorless, clear and transparent solution.
After an overnight fast, C57 mice were intragastrically administered the test compound at a dosage of 2 mg/kg and a volume of 0.2 ml/10 g.
The mice were intragastrically administered the test compounds. 0.1 ml of blood was taken before the administration and at 0.25, 0.5, 1.0, 2.0, 4.0, 6.0, 8.0, 11.0 and 24.0 hours after the administration. The samples were stored in heparinized tubes, and centrifuged for 10 minutes at 3500 rpm to separate the blood plasma. The plasma samples were stored at −20° C.
The content of the test compound in the plasma of mice after intragastrical administration of the test compound at different concentrations was determined: 25 μL of […] plasma at each time point after the administration was taken, followed by the addition of 50 μL of the internal standard camptothecin solution (National Institutes for Food and Drug Control of China) and 200 μL of acetonitrile. The resulting solution was vortex-mixed for 5 minutes, and centrifuged for 10 minutes (4000 rpm). 4 μL of the supernatant was taken from the plasma samples for LC/MS/MS analysis.

Row | IC50 (Colo205 cells) [nM] | IC50 (ERK2) [nM] | IC50 (ERK1) [nM] | Vd/F [1] [L/kg] | AUC [1] [ng·h/mL] | CL/F [1] [mL/min/kg] | half-life [1] [h] | Cmax [1] [ng/mL] | MRT [1] [h] | Compound
1 | 62 | 7 | 5 | 3.07 | 3440 | 9.69 | 3.66 | 1020 | 3.47 | Cn1nccc1Nc1nccc(-c2cc3n(c2)C(=O)N([C@H](CO)c2cccc(Cl)c2)C3)n1 [Example 10, (S)-2-(1-(3-Chlorophenyl)-2-hydroxyethyl)-6-(2-((1-methyl-1H-pyrazol-5-yl)amino)pyrimidin-4-yl)-1,2-dihydro-3H-pyrrolo[1,2-c]imidazol-3-one]
2 | 55 | 5 | 5 | 2.13 | 3700 | 9 | 2.74 | 816 | 3.3 | Cc1cccc([C@@H](CO)N2Cc3cc(-c4ccnc(Nc5ccnn5C)n4)cn3C2=O)c1 [Example 15, (S)-2-(2-Hydroxy-1-(m-tolyl)ethyl)-6-(2-((1-methyl-1H-pyrazol-5-yl)amino)pyrimidin-4-yl)-1H-pyrrolo[1,2-c]imidazol-3(2H)-one]
3 | 68 | 18 | 30 | 1.41 | 7630 | 4.37 | 3.73 | 1540 | 4.95 | Cn1nccc1Nc1nccc(-c2cc3n(c2)C(=O)N([C@H](CO)c2ccc(Cl)c(F)c2)C3)n1 [Example 20, (S)-2-(1-(3-Fluoro-4-chlorophenyl)-2-hydroxyethyl)-6-(2-((1-methyl-1H-pyrazol-5-yl)amino)pyrimidin-4-yl)-1H-pyrrolo[1,2-c]imidazol-3(2H)-one]
